Assay results published in patent publication US20250281464A1, “TREATMENT OF PATHOGENIC NEISSERIA SP. INFECTION WITH TRIAZOLE ANTIFUNGAL AGENTS” (Virginia Tech Intellectual Properties, Inc., priority 2022, published 2025).
≈ marks a conversion by molar mass, not a printed value. Like-named read-outs stand apart in the source and are kept apart here.

How the values were obtained:
[1] = test system: Bifidobacterium angulatum; assay: MIC against normal gut microbiota; format: cell-based; conditions: Bifidobacterium angulatum (1 strain)
Description: (§1) Disrupting the intestinal microbiota using broad-spectrum antimicrobial therapy increases the susceptibility of hosts to C. difficile colonization.

[2] = test system: Staphylococcus aureus; assay: MIC against normal gut microbiota; format: cell-based; conditions: Staphylococcus aureus (1 strain)
Description: as §1

[3] = test system: Escherichia coli; assay: MIC against normal gut microbiota; format: cell-based; conditions: Escherichia coli (1 strain)
Description: as §1

[4] = test system: Lactobacillus casei; assay: MIC against normal gut microbiota; format: cell-based; conditions: Lactobacillus casei (1 strain)
Description: as §1

[5] = test system: Bacteroides dorei; assay: MIC against normal gut microbiota; format: cell-based; conditions: Bacteroides dorei (2 strains)
Description: as §1

[6] = test system: Lactobacillus rhamnosus; assay: MIC against normal gut microbiota; format: cell-based; conditions: Lactobacillus rhamnosus (1 strain)
Description: as §1

[7] = test system: Enterococcus faecalis; assay: MIC against normal gut microbiota; format: cell-based; conditions: Enterococcus faecalis (1 strain)
Description: as §1

[8] = MIC against normal gut microbiota; format: cell-based
Description: as §1

[9] = test system: Lactobacillus brevis; assay: MIC against normal gut microbiota; format: cell-based; conditions: Lactobacillus brevis (1 strain)
Description: as §1

[10] = test system: Enterococcus faecium; assay: MIC against normal gut microbiota; format: cell-based; conditions: Enterococcus faecium (1 strain)
Description: as §1

[11] = test system: N. gonorrhoeae; assay: Post-antibiotic effect (PAE) against N. gonorrhoeae; format: cell-based, Neisseria gonorrhoeae; conditions: 1 h exposure at 10×MIC
Description: Determining the PAE of a new antimicrobial is an important step for dosing and has clinical importance.

[12] = test system: L. gasseri; assay: MIC against commensal vaginal Lactobacillus strains; format: cell-based, Lactobacillus gasseri; conditions: for MIC: Lactobacillus gasseri; for MIC Range: Table 6, L. gasseri (4 strains)
Description: (§2) N. gonorrhoeae pathogenesis greatly depends on colonization of the reproductive tract. One of the natural barriers of such colonization is an intact healthy microbiome. Species of lactobacilli present in the genitourinary tract play a significant role in hindering colonization by Neisseria(1).
(§3) A healthy vaginal microbiome that is dominated by Lactobacillus spp. is less susceptible to N. gonorrhoeae infection and other sexually transmitted diseases (STDs). […] We tested the activity of azoles against important members of healthy vaginal microbiota that inhibit N. gonorrhoeae colonization.

[13] = test system: resistant N. gonorrhoeae isolates; assay: MIC against resistant N. gonorrhoeae isolates by agar dilution; format: cell-based, Neisseria gonorrhoeae
[14] = test system: L. jensenii; assay: MIC against commensal vaginal Lactobacillus strains; format: cell-based, Lactobacillus jensenii; conditions: for MIC: Lactobacillus jensenii; for MIC Range: Table 6, L. jensenii (7 strains)
Description: as §2, §3

[15] = test system: L. johnsonii; assay: as above; format: cell-based, Lactobacillus johnsonii; conditions: for MIC Range: Table 6, L. johsonii (2 strains)
Description: as §2, §3

[16] = test system: L. crispatus; assay: as above; format: cell-based, Lactobacillus crispatus; conditions: for MIC: Lactobacillus crispatus; for MIC Range: Table 6, L. crispatus (3 strains)
Description: as §2, §3

[17] = test system: N. lactamica; assay: MIC against Neisseria spp.; format: cell-based; conditions: N. lactamica (1 strain)
Description: (§4) Intrigued by the specificity and potent activity of azoles against N. gonorrhoeae, we evaluated the extent of the azoles' antibacterial activity against other Neisseria species (Table 8).

[18] = test system: N. mucosa; assay: MIC against Neisseria spp.; format: cell-based; conditions: N. mucosa (1 strain)
Description: as §4

[19] = test system: N. flavescens; assay: MIC against Neisseria spp.; format: cell-based; conditions: N. flavescens (1 strain)
Description: as §4

[20] = test system: N. gonorrhoeae isolates; assay: MIC against panel of N. gonorrhoeae clinical isolates; format: cell-based, Neisseria gonorrhoeae; conditions: for MIC50 / MIC90: Neisseria gonorrhoeae; for MIC50: read-out: MIC50; for MIC90: read-out: MIC90
[21] = test system: commensal vaginal lactobacilli strains; assay: MIC against all commensal vaginal Lactobacillus strains tested; format: cell-based, Lactobacillus spp.; conditions: all species/strains of Lactobacillus tested (Example 2); read-out: MIC
Description: as §2, §3

[22] = test system: Bacteroides fragilis; assay: MIC against normal gut microbiota; format: cell-based; conditions: Bacteroides fragilis (4 strains)
Description: as §1

[23] = Bacteroides adolescentis (2 strains)
[24] = Table 1, 104 N. gonorrhoeae isolates
[25] = Table 3, 103 N. gonorrhoeae isolates with different resistance profiles

SMILES: CC[C@H]1OC(=O)[C@H](C)[C@@H](O[C@H]2C[C@@](C)(OC)[C@@H](O)[C@H](C)O2)[C@H](C)[C@@H](O[C@@H]2O[C@H](C)C[C@H](N(C)C)[C@H]2O)[C@](C)(O)C[C@@H](C)CN(C)[C@H](C)[C@@H](O)[C@]1(C)O [Azithromycin]
- MIC Range [1]: 0.03 µg/mL (≈ 0.0401 µM)
- MIC Range [2]: 0.25 µg/mL (≈ 0.334 µM)
- MIC Range [3]: 2 µg/mL (≈ 2.67 µM)
- MIC Range [4]: 0.5 µg/mL (≈ 0.668 µM)
- MIC Range [5]: 4 to 16 µg/mL
- MIC Range [6]: 1 µg/mL (≈ 1.34 µM)
- MIC Range [7]: 2 µg/mL (≈ 2.67 µM)
- MIC Range [8, 23]: 0.015 µg/mL (≈ 0.02 µM)
- MIC Range ([8]; Bacteroides breve (2 strains)): 0.03 to 0.06 µg/mL
- MIC Range ([8]; Bacteroides longum (2 strains)): 0.25 µg/mL (≈ 0.334 µM)
- MIC Range [9]: 1 µg/mL (≈ 1.34 µM)
- MIC Range [10]: 0.25 µg/mL (≈ 0.334 µM)
- PAE ([11]; strain FA 1090): 6 h
- PAE ([11]; strain WHO P): 8 h
- PAE ([11]; strain WHO Y): 4 h
- MIC ([12]; L. gasseri HM-407): ≤ 0.5 µg/mL
- MIC ([12]; L. gasseri HM-642): 2 µg/mL (≈ 2.67 µM)
- MIC ([12]; L. gasseri HM-644): 2 µg/mL (≈ 2.67 µM)
- MIC ([12]; L. gasseri HM-647): 1 µg/mL (≈ 1.34 µM)
- MIC Range [12]: ≤1 µg/mL
- MIC ([13]; strain CDC-174, agar dilution): 1 µg/mL (≈ 1.34 µM)
- MIC ([13]; strain CDC-179, agar dilution): 8 µg/mL (≈ 10.7 µM)
- MIC ([13]; strain CDC-181, agar dilution): 256 µg/mL (≈ 342 µM)
- MIC ([13]; strain WHO-L, agar dilution): 0.5 µg/mL (≈ 0.668 µM)
- MIC ([13]; strain WHO-X, agar dilution): 0.5 µg/mL (≈ 0.668 µM)
- MIC ([13]; strain WHO-Y, agar dilution): 1 µg/mL (≈ 1.34 µM)
- MIC ([13]; strain WHO-Z, agar dilution): 1 µg/mL (≈ 1.34 µM)
- MIC ([14]; L. jensenii HM-105): ≤ 0.5 µg/mL
- MIC ([14]; L. jensenii HM-372): 1 µg/mL (≈ 1.34 µM)
- MIC ([14]; L. jensenii HM-374): 1 µg/mL (≈ 1.34 µM)
- MIC ([14]; L. jensenii HM-639): 1 µg/mL (≈ 1.34 µM)
- MIC ([14]; L. jensenii HM-640): ≤ 0.5 µg/mL
- MIC ([14]; L. jensenii HM-645): 1 µg/mL (≈ 1.34 µM)
- MIC ([14]; L. jensenii HM-646): 2 µg/mL (≈ 2.67 µM)
- MIC Range [14]: ≤1 µg/mL
- MIC ([15]; Lactobacillus johnsonii, L. johnsonii HM-643): 2 µg/mL (≈ 2.67 µM)
- MIC Range [15]: ≤1 µg/mL
- MIC ([16]; L. crispatus HM-103): 1 µg/mL (≈ 1.34 µM)
- MIC ([16]; L. crispatus HM-371): 2 µg/mL (≈ 2.67 µM)
- MIC ([16]; L. crispatus HM-638): 1 µg/mL (≈ 1.34 µM)
- MIC Range [16]: ≤1 µg/mL
- MIC Range [17]: 2 µg/mL (≈ 2.67 µM)
- MIC Range [18]: 2 µg/mL (≈ 2.67 µM)
- MIC Range [19]: 2 µg/mL (≈ 2.67 µM)
- MIC50 [20, 24]: 1 µg/mL (≈ 1.34 µM)
- MIC90 [20, 24]: 4 µg/mL (≈ 5.34 µM)
- MIC50 [20, 25]: 1 µg/mL (≈ 1.34 µM)
- MIC90 [20, 25]: 4 µg/mL (≈ 5.34 µM)
- MIC Range [20, 24]: 0.03 to 512 µg/mL
- MIC Range [20, 25]: 0.03 to 512 µg/mL
- MIC [21]: < 1 µg/mL

SMILES: O=c1ccc2ncc(=O)n3c2n1C[C@H]3CN1CCC(NCc2cc3c(cn2)OCCC3)CC1 [Gepotidacin]
- MIC Range [1]: 0.125 µg/mL (≈ 0.279 µM)
- MIC Range [2]: 0.25 µg/mL (≈ 0.557 µM)
- MIC Range [3]: 0.125 µg/mL (≈ 0.279 µM)
- MIC Range [4]: 0.25 µg/mL (≈ 0.557 µM)
- MIC Range [5]: 0.125 µg/mL (≈ 0.279 µM)
- MIC Range [6]: 0.5 µg/mL (≈ 1.11 µM)
- MIC Range [22]: 0.25 to 2 µg/mL
- MIC Range [7]: 1 µg/mL (≈ 2.23 µM)
- MIC Range [8, 23]: <0.125 µg/mL
- MIC Range ([8]; Bacteroides breve (2 strains)): <0.125 µg/mL
- MIC Range ([8]; Bacteroides longum (2 strains)): 0.5 µg/mL (≈ 1.11 µM)
- MIC Range [9]: 0.5 µg/mL (≈ 1.11 µM)
- MIC Range [10]: 2 µg/mL (≈ 4.46 µM)
- MIC Range [12]: ≤1 µg/mL
- MIC Range [14]: ≤1 µg/mL
- MIC Range [15]: ≤1 µg/mL
- MIC Range [16]: ≤1 µg/mL
- MIC50 [20, 24]: 0.25 µg/mL (≈ 0.557 µM)
- MIC90 [20, 24]: 0.5 µg/mL (≈ 1.11 µM)
- MIC50 [20, 25]: 0.5 µg/mL (≈ 1.11 µM)
- MIC90 [20, 25]: 1 µg/mL (≈ 2.23 µM)
- MIC Range [20, 24]: 0.03 to 8 µg/mL
- MIC Range [20, 25]: 0.03 to 8 µg/mL
- MIC [21]: < 1 µg/mL
